Reference: patent US20220347171A1, “TREATMENT OF PRURIGO NODULARIS” (TREVI THERAPEUTICS, INC., priority 2016, published 2022)
Counter-ions that a name gives are not always drawn.

Test system: prurigo nodularis patients
Assay: TR03ext (Example 3): PAS prurigo lesions with excoriations/crusts; Stage 0 0%, Stage 1 1%-25%, Stage 2 26%-50%, Stage 3 51%-75%, Stage 4 76%-100%
Assay type: in vivo, human
Source text: In some embodiments, after the treatment the patient experiences a substantial reduction of itch that is characterized by at least one category/stage improvement in Prurigo Activity Score (PAS). In particular embodiments, after the treatment the patient experiences a reduction of itch that results in at least one category/stage improvement in Prurigo Activity Score (PAS) domains of number of prurigo lesions, prurigo lesions with excoriations/crusts and/or healed prurigo lesions. The PAS consists of 7 qualitative and quantitative measurements related to the examination of the skin. Type, number, distribution, affected body parts, and quantitative number of lesions in a representative body part are documented. The biggest lesion and the most representative lesion are monitored with documentation of height and area measurements. Prurigo lesion activity is recorded as a percentages based on their stage (0-4). In some embodiments, number measurements of lesions on the body have four numerical categories: 0, 1-19, 20-100 and >100. In some embodiments, prurigo lesions with excoriations/crusts have five categories: Stage 4 (76%-100%), Stage 3 (51%-75%), Stage 2 (26%-50%), Stage 1 (1-25%) and Stage 0 (0%). In some embodiments, healed prurigo lesions have five categories: Stage 4 (0-24%), Stage 3 (25-49%), Stage 2 (50-74%), Stage 1 (75%-99%), Stage 0 (100%).
This clinical study was a Phase 2 Open Label Extension Study (clinical study TR03ext) of the randomized, double-blind, 3-parallel arm, placebo controlled dose ranging study described in Example 2. All those subjects who were randomized, and then completed Example 2 study, were eligible to participate in the Extension Study.
The primary endpoint was a description of the overall incidence and nature of Treatment-Emergent AEs (TEAES) during weeks 5-50 of the study. Exploratory efficacy endpoints included Change from Baseline patient reported outcome measures of Worst itch NRS, itchy VRS and ItchyQoL, by Treatment Period study visit and Baseline NRS score. There was also an assessment of any potential skin lesion changes over time using the metrics of the PAS.
Patients in Extension Study were titrated over a dose range of 30 mg QD to 180 mg BID based on tolerability. The selected dose range was based on Example 2 study whereby patients were titrated from a 30 mg QD dose either to 30 mg BID, 60 mg BID, 90 mg BID, 120 mg BID or a 180 mg BID dose. The highest dose proposed was 180 mg BID (360 mg daily dose), and was well below the highest recommended daily treatment of 160 mg IV (equivalent to 960 mg oral) for the current marketed parenteral administered product.
Table 15, 16 and 17 display excoriations/crusts lesion PAS data for subjects who received treatment for at least 6 months, subjects who received treatment for at least 9 months and subjects who completed 50 weeks of treatment in the study, respectively. The status of the prurigo lesions with excoriations/crusts is reported as percentages based on their stage (0-4) using a grading system: Stage 0 (0% excoriations/crusts); Stage 1 (1%-25% excoriations/crusts); Stage 2 (26%-50% excoriations/crusts); Stage 3 (51%-75% excoriations/crusts); Stage 4: (76%-100% excoriations/crusts). Thus, the higher the stage, the more severe is the prurigo skin pathology.

[1] = treatment for at least 6 months
[2] = treatment for at least 9 months

## Oc1ccc2c3c1OC1[C@@H](O)CC[C@@]4(O)[C@@H](C2)N(CC2CCC2)CC[C@]314 (stereo partly drawn) [Nalbuphine, 17-(cyclobutylmethyl)-4,5α-epoxymorphinian-3, 6α, 14-triol, hydrochloride]
After 6 months, 13/16
  Subjects with at least one category improvement (lesser stage) in the percentage of excoriations/crust lesions (PAS): 81.2%
After 9 months, 9/13
  Subjects with at least one category improvement (lesser stage) in the percentage of excoriations/crust lesions (PAS): 69.2%
After 12 months, 8/12
  Subjects with at least one category improvement (lesser stage) in the percentage of excoriations/crust lesions (PAS): 66.6%
Treatment for 50 weeks
  Excoriated/Crusts PAS Category Shift: Baseline Stage 0 to Last Observed Stage 0: 1 (7.1%) Number (%) of Subjects
  Excoriated/Crusts PAS Category Shift: Baseline Stage 0 to Last Observed Stage 1: 0 Number (%) of Subjects
  Excoriated/Crusts PAS Category Shift: Baseline Stage 0 to Last Observed Stage 2: 0 Number (%) of Subjects
  Excoriated/Crusts PAS Category Shift: Baseline Stage 0 to Last Observed Stage 3: 0 Number (%) of Subjects
  Excoriated/Crusts PAS Category Shift: Baseline Stage 0 to Last Observed Stage 4: 0 Number (%) of Subjects
  Excoriated/Crusts PAS Category Shift: Baseline Stage 1 to Last Observed Stage 0: 0 Number (%) of Subjects
  Excoriated/Crusts PAS Category Shift: Baseline Stage 1 to Last Observed Stage 1: 1 (7.7%) Number (%) of Subjects
  Excoriated/Crusts PAS Category Shift: Baseline Stage 1 to Last Observed Stage 2: 0 Number (%) of Subjects
  Excoriated/Crusts PAS Category Shift: Baseline Stage 1 to Last Observed Stage 3: 0 Number (%) of Subjects
  Excoriated/Crusts PAS Category Shift: Baseline Stage 1 to Last Observed Stage 4: 1 (7.7%) Number (%) of Subjects
  Excoriated/Crusts PAS Category Shift: Baseline Stage 2 to Last Observed Stage 0: 0 Number (%) of Subjects
  Excoriated/Crusts PAS Category Shift: Baseline Stage 2 to Last Observed Stage 1: 5 (38.5%) Number (%) of Subjects
  Excoriated/Crusts PAS Category Shift: Baseline Stage 2 to Last Observed Stage 2: 0 Number (%) of Subjects
  Excoriated/Crusts PAS Category Shift: Baseline Stage 2 to Last Observed Stage 3: 0 Number (%) of Subjects
  Excoriated/Crusts PAS Category Shift: Baseline Stage 2 to Last Observed Stage 4: 0 Number (%) of Subjects
  Excoriated/Crusts PAS Category Shift: Baseline Stage 3 to Last Observed Stage 0: 0 Number (%) of Subjects
  Excoriated/Crusts PAS Category Shift: Baseline Stage 3 to Last Observed Stage 1: 0 Number (%) of Subjects
  Excoriated/Crusts PAS Category Shift: Baseline Stage 3 to Last Observed Stage 2: 2 (15.4%) Number (%) of Subjects
  Excoriated/Crusts PAS Category Shift: Baseline Stage 3 to Last Observed Stage 3: 1 (7.7%) Number (%) of Subjects
  Excoriated/Crusts PAS Category Shift: Baseline Stage 3 to Last Observed Stage 4: 0 Number (%) of Subjects
  Excoriated/Crusts PAS Category Shift: Baseline Stage 4 to Last Observed Stage 0: 1 (7.7%) Number (%) of Subjects
  Excoriated/Crusts PAS Category Shift: Baseline Stage 4 to Last Observed Stage 1: 0 Number (%) of Subjects
  Excoriated/Crusts PAS Category Shift: Baseline Stage 4 to Last Observed Stage 2: 0 Number (%) of Subjects
  Excoriated/Crusts PAS Category Shift: Baseline Stage 4 to Last Observed Stage 3: 0 Number (%) of Subjects
  Excoriated/Crusts PAS Category Shift: Baseline Stage 4 to Last Observed Stage 4: 1 (7.7%) Number (%) of Subjects
  Excoriated/Crusts PAS: Last Observed PAS Result Stage 0: 2 (15.4) Number (%) of Subjects
  Excoriated/Crusts PAS: Last Observed PAS Result Stage 1: 6 (46.2) Number (%) of Subjects
  Excoriated/Crusts PAS: Last Observed PAS Result Stage 2: 2 (15.4) Number (%) of Subjects
  Excoriated/Crusts PAS: Last Observed PAS Result Stage 3: 1 (7.7) Number (%) of Subjects
  Excoriated/Crusts PAS: Last Observed PAS Result Stage 4: 2 (15.4) Number (%) of Subjects
[1]
  Excoriated/Crusts PAS Category Shift: Baseline Stage 0 to Last Observed Stage 0: 1 (5.9%) Number (%) of Subjects
  Excoriated/Crusts PAS Category Shift: Baseline Stage 0 to Last Observed Stage 1: 0 Number (%) of Subjects
  Excoriated/Crusts PAS Category Shift: Baseline Stage 0 to Last Observed Stage 2: 0 Number (%) of Subjects
  Excoriated/Crusts PAS Category Shift: Baseline Stage 0 to Last Observed Stage 3: 0 Number (%) of Subjects
  Excoriated/Crusts PAS Category Shift: Baseline Stage 0 to Last Observed Stage 4: 0 Number (%) of Subjects
  Excoriated/Crusts PAS Category Shift: Baseline Stage 1 to Last Observed Stage 0: 0 Number (%) of Subjects
  Excoriated/Crusts PAS Category Shift: Baseline Stage 1 to Last Observed Stage 1: 1 (5.9%) Number (%) of Subjects
  Excoriated/Crusts PAS Category Shift: Baseline Stage 1 to Last Observed Stage 2: 0 Number (%) of Subjects
  Excoriated/Crusts PAS Category Shift: Baseline Stage 1 to Last Observed Stage 3: 0 Number (%) of Subjects
  Excoriated/Crusts PAS Category Shift: Baseline Stage 1 to Last Observed Stage 4: 1 (5.9%) Number (%) of Subjects
  Excoriated/Crusts PAS Category Shift: Baseline Stage 2 to Last Observed Stage 0: 1 (5.9%) Number (%) of Subjects
  Excoriated/Crusts PAS Category Shift: Baseline Stage 2 to Last Observed Stage 1: 5 (29.4%) Number (%) of Subjects
  Excoriated/Crusts PAS Category Shift: Baseline Stage 2 to Last Observed Stage 2: 0 Number (%) of Subjects
  Excoriated/Crusts PAS Category Shift: Baseline Stage 2 to Last Observed Stage 3: 0 Number (%) of Subjects
  Excoriated/Crusts PAS Category Shift: Baseline Stage 2 to Last Observed Stage 4: 0 Number (%) of Subjects
  Excoriated/Crusts PAS Category Shift: Baseline Stage 3 to Last Observed Stage 0: 0 Number (%) of Subjects
  Excoriated/Crusts PAS Category Shift: Baseline Stage 3 to Last Observed Stage 1: 1 (5.9%) Number (%) of Subjects
  Excoriated/Crusts PAS Category Shift: Baseline Stage 3 to Last Observed Stage 2: 2 (11.8%) Number (%) of Subjects
  Excoriated/Crusts PAS Category Shift: Baseline Stage 3 to Last Observed Stage 3: 1 (5.9%) Number (%) of Subjects
  Excoriated/Crusts PAS Category Shift: Baseline Stage 3 to Last Observed Stage 4: 0 Number (%) of Subjects
  Excoriated/Crusts PAS Category Shift: Baseline Stage 4 to Last Observed Stage 0: 1 (5.9%) Number (%) of Subjects
  Excoriated/Crusts PAS Category Shift: Baseline Stage 4 to Last Observed Stage 1: 2 (11.8%) Number (%) of Subjects
  Excoriated/Crusts PAS Category Shift: Baseline Stage 4 to Last Observed Stage 2: 0 Number (%) of Subjects
  Excoriated/Crusts PAS Category Shift: Baseline Stage 4 to Last Observed Stage 3: 0 Number (%) of Subjects
  Excoriated/Crusts PAS Category Shift: Baseline Stage 4 to Last Observed Stage 4: 1 (5.9%) Number (%) of Subjects
  Excoriated/Crusts PAS: Last Observed PAS Result Stage 0: 3 (17.6) Number (%) of Subjects
  Excoriated/Crusts PAS: Last Observed PAS Result Stage 1: 9 (52.9) Number (%) of Subjects
  Excoriated/Crusts PAS: Last Observed PAS Result Stage 2: 2 (11.8) Number (%) of Subjects
  Excoriated/Crusts PAS: Last Observed PAS Result Stage 3: 1 (5.9) Number (%) of Subjects
  Excoriated/Crusts PAS: Last Observed PAS Result Stage 4: 2 (11.8) Number (%) of Subjects
[2]
  Excoriated/Crusts PAS Category Shift: Baseline Stage 0 to Last Observed Stage 0: 1 (7.1%) Number (%) of Subjects
  Excoriated/Crusts PAS Category Shift: Baseline Stage 0 to Last Observed Stage 1: 0 Number (%) of Subjects
  Excoriated/Crusts PAS Category Shift: Baseline Stage 0 to Last Observed Stage 2: 0 Number (%) of Subjects
  Excoriated/Crusts PAS Category Shift: Baseline Stage 0 to Last Observed Stage 3: 0 Number (%) of Subjects
  Excoriated/Crusts PAS Category Shift: Baseline Stage 0 to Last Observed Stage 4: 0 Number (%) of Subjects
  Excoriated/Crusts PAS Category Shift: Baseline Stage 1 to Last Observed Stage 0: 0 Number (%) of Subjects
  Excoriated/Crusts PAS Category Shift: Baseline Stage 1 to Last Observed Stage 1: 1 (7.1%) Number (%) of Subjects
  Excoriated/Crusts PAS Category Shift: Baseline Stage 1 to Last Observed Stage 2: 0 Number (%) of Subjects
  Excoriated/Crusts PAS Category Shift: Baseline Stage 1 to Last Observed Stage 3: 0 Number (%) of Subjects
  Excoriated/Crusts PAS Category Shift: Baseline Stage 1 to Last Observed Stage 4: 1 (7.1%) Number (%) of Subjects
  Excoriated/Crusts PAS Category Shift: Baseline Stage 2 to Last Observed Stage 0: 0 Number (%) of Subjects
  Excoriated/Crusts PAS Category Shift: Baseline Stage 2 to Last Observed Stage 1: 5 (35.7%) Number (%) of Subjects
  Excoriated/Crusts PAS Category Shift: Baseline Stage 2 to Last Observed Stage 2: 0 Number (%) of Subjects
  Excoriated/Crusts PAS Category Shift: Baseline Stage 2 to Last Observed Stage 3: 0 Number (%) of Subjects
  Excoriated/Crusts PAS Category Shift: Baseline Stage 2 to Last Observed Stage 4: 0 Number (%) of Subjects
  Excoriated/Crusts PAS Category Shift: Baseline Stage 3 to Last Observed Stage 0: 0 Number (%) of Subjects
  Excoriated/Crusts PAS Category Shift: Baseline Stage 3 to Last Observed Stage 1: 0 Number (%) of Subjects
  Excoriated/Crusts PAS Category Shift: Baseline Stage 3 to Last Observed Stage 2: 2 (14.3%) Number (%) of Subjects
  Excoriated/Crusts PAS Category Shift: Baseline Stage 3 to Last Observed Stage 3: 1 (7.1%) Number (%) of Subjects
  Excoriated/Crusts PAS Category Shift: Baseline Stage 3 to Last Observed Stage 4: 0 Number (%) of Subjects
  Excoriated/Crusts PAS Category Shift: Baseline Stage 4 to Last Observed Stage 0: 1 (7.1%) Number (%) of Subjects
  Excoriated/Crusts PAS Category Shift: Baseline Stage 4 to Last Observed Stage 1: 1 (7.1%) Number (%) of Subjects
  Excoriated/Crusts PAS Category Shift: Baseline Stage 4 to Last Observed Stage 2: 0 Number (%) of Subjects
  Excoriated/Crusts PAS Category Shift: Baseline Stage 4 to Last Observed Stage 3: 0 Number (%) of Subjects
  Excoriated/Crusts PAS Category Shift: Baseline Stage 4 to Last Observed Stage 4: 1 (7.1%) Number (%) of Subjects
  Excoriated/Crusts PAS: Last Observed PAS Result Stage 0: 2 (14.3) Number (%) of Subjects
  Excoriated/Crusts PAS: Last Observed PAS Result Stage 1: 7 (50.0) Number (%) of Subjects
  Excoriated/Crusts PAS: Last Observed PAS Result Stage 2: 2 (14.3) Number (%) of Subjects
  Excoriated/Crusts PAS: Last Observed PAS Result Stage 3: 1 (7.1) Number (%) of Subjects
  Excoriated/Crusts PAS: Last Observed PAS Result Stage 4: 2 (14.3) Number (%) of Subjects
